Patent US7662417B2, “Preservatives and protective systems” (Laboratorios Miret, S.A., priority 2002, dated 2010)

What was measured:
metabolism in rats = type: in vivo
[1] = test system: Salmonella typhimurium ATCC 16028; assay: standard CMI evaluation; type: cell-based; settings: tested at 683-8 mg/L, both products contain 21% LAE
Procedure: (§1) A precipitate of xanthan/LAE is formed when 150 mL of a solution containing 1.3% of xanthan gum and 300 mL of a solution containing 0.3% of LAE are mixed. Then, 2.5 g of white solid are isolated by filtration.

[2] = test system: Candida albicans ATCC 10231; assay: standard CMI evaluation; type: cell-based; settings: tested at 683-8 mg/L, both products contain 21% LAE
Procedure: as §1

[3] = test system: Citrobacter intermedium CECT 401; assay: standard CMI evaluation; type: cell-based; settings: tested at 683-8 mg/L, both products contain 21% LAE
Procedure: as §1

[4] = test system: Enterobacter aerogenes CECT 684; assay: standard CMI evaluation; type: cell-based; settings: tested at 683-8 mg/L, both products contain 21% LAE
Procedure: as §1

[5] = test system: Pseudomonas aeruginosa ATCC 9023; assay: standard CMI evaluation; type: cell-based; settings: tested at 683-8 mg/L, both products contain 21% LAE
Procedure: as §1

[6] = test system: Aspergillus niger ATCC 14604; assay: standard CMI evaluation; type: cell-based; settings: tested at 683-8 mg/L, both products contain 21% LAE
Procedure: as §1

[7] = test system: Staphylococcus aureus ATCC 6538; assay: standard CMI evaluation; type: cell-based; settings: tested at 683-8 mg/L, both products contain 21% LAE
Procedure: as §1

[8] = test system: Rhodotorula ruba CECT 1158; assay: standard CMI evaluation; type: cell-based; settings: tested at 683-8 mg/L, both products contain 21% LAE
Procedure: as §1

[9] = test system: Bacillus cereus ATCC 9634; assay: standard CMI evaluation; type: cell-based; settings: tested at 683-8 mg/L, both products contain 21% LAE
Procedure: as §1

[10] = test system: Escherichia coli ATCC 8739; assay: standard CMI evaluation; type: cell-based; settings: tested at 683-8 mg/L, both products contain 21% LAE
Procedure: as §1

toxicological studies = type: in vivo; settings: animals and humans

## CCCCCCCCCCCC(=O)N[C@@H](CCCN=C(N)N)C(=O)OCC.Cl [LAE, ethyl ester of the lauramide of the arginine monohydrochloride]
Metabolism in rats
  absorption and metabolism: fast absorption and metabolisation into naturally-occurring amino acids and the fatty acid lauric acid
[1]
  CMI: 128 mg/L
[2]
  CMI: 128 mg/L
[3]
  CMI: 128 mg/L
[4]
  CMI: 128 mg/L
[5]
  CMI: 256 mg/L
[6]
  CMI: 170 mg/L
[7]
  CMI: 128 mg/L
[8]
  CMI: 128 mg/L
[9]
  CMI: 128 mg/L
[10]
  CMI: 128 mg/L
Toxicological studies
  toxicity: completely harmless
